{
  "source": "PubChem BioAssay AID2060496",
  "about": "(Molecular Pharmacology Branch, DTP, NCI, 2025)",
  "system": "276233-004-R-J1-PDC complex spheroid viability",
  "experiment": "Anticancer human tumor 276233-004-R-J1-PDC patient-derived colon adenocarcinoma cell line growth inhibition [GQUAD]",
  "conditions": "for IC50: curve of first compound; for viability, T/C: stronger effect = lower value",
  "summary_of_the_method": "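Multi-cell-type spheroids of tumor cells with HUVEC and mesenchymal stem cells, treated with drug combinations. Concentrations descend in half-log steps from near clinical Cmax, or from 10 microM where Cmax is unknown; viability read-out.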",
  "key": {"[1]": {"conditions": "second compound 0.0316 µM, first compound 0.0316 µM"}, "[2]": {"conditions": "second compound 0.0316 µM, first compound 0.1 µM"}, "[3]": {"conditions": "second compound 0.0316 µM, first compound 0.316 µM"}, "[4]": {"conditions": "second compound 0.0316 µM, first compound 1 µM"}, "[5]": {"conditions": "second compound 0.0316 µM, first compound 3.16 µM"}, "[6]": {"conditions": "second compound 0.0316 µM, first compound 10 µM"}, "[7]": {"conditions": "second compound 0.1 µM, first compound 0.0316 µM"}, "[8]": {"conditions": "second compound 0.1 µM, first compound 0.1 µM"}, "[9]": {"conditions": "second compound 0.1 µM, first compound 0.316 µM"}, "[10]": {"conditions": "second compound 0.1 µM, first compound 1 µM"}, "[11]": {"conditions": "second compound 0.1 µM, first compound 3.16 µM"}, "[12]": {"conditions": "second compound 0.1 µM, first compound 10 µM"}, "[13]": {"conditions": "second compound 0.316 µM, first compound 0.0316 µM"}, "[14]": {"conditions": "second compound 0.316 µM, first compound 0.1 µM"}, "[15]": {"conditions": "second compound 0.316 µM, first compound 0.316 µM"}, "[16]": {"conditions": "second compound 0.316 µM, first compound 1 µM"}, "[17]": {"conditions": "second compound 0.316 µM, first compound 3.16 µM"}, "[18]": {"conditions": "second compound 0.316 µM, first compound 10 µM"}, "[19]": {"conditions": "second compound 1 µM, first compound 0.0316 µM"}, "[20]": {"conditions": "second compound 1 µM, first compound 0.1 µM"}, "[21]": {"conditions": "second compound 1 µM, first compound 0.316 µM"}, "[22]": {"conditions": "second compound 1 µM, first compound 1 µM"}, "[23]": {"conditions": "second compound 1 µM, first compound 3.16 µM"}, "[24]": {"conditions": "second compound 1 µM, first compound 10 µM"}, "[25]": {"conditions": "second compound 3.16 µM, first compound 0.0316 µM"}, "[26]": {"conditions": "second compound 3.16 µM, first compound 0.1 µM"}, "[27]": {"conditions": "second compound 3.16 µM, first compound 0.316 µM"}, "[28]": {"conditions": "second compound 3.16 µM, first compound 1 µM"}, "[29]": {"conditions": "second compound 3.16 µM, first compound 3.16 µM"}, "[30]": {"conditions": "second compound 3.16 µM, first compound 10 µM"}, "[31]": {"conditions": "second compound 10 µM, first compound 0.0316 µM"}, "[32]": {"conditions": "second compound 10 µM, first compound 0.1 µM"}, "[33]": {"conditions": "second compound 10 µM, first compound 0.316 µM"}, "[34]": {"conditions": "second compound 10 µM, first compound 1 µM"}, "[35]": {"conditions": "second compound 10 µM, first compound 3.16 µM"}, "[36]": {"conditions": "second compound 10 µM, first compound 10 µM"}},
  "data": [
    {"compound": "Nc1ccn(C2OC(CO)C(O)C2(F)F)c(=O)n1", "note": "(centres undefined) + CN(C)c1ccc(Nc2c3ccc(NC(=O)CCN4CCCC4)cc3nc3cc(NC(=O)CCN4CCCC4)ccc23)cc1;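 also: spheroids exposed to drugs for seven days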;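 as to viability, T/C: 100% = DMSO vehicle control viability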", "values": [
      {"measurement": "IC50", "setting": "second compound 0.0316 µM", "result": "> 10", "unit": "µM"},
      {"measurement": "IC50", "setting": "second compound 0.1 µM", "result": "> 10", "unit": "µM"},
      {"measurement": "IC50", "setting": "second compound 0.316 µM", "result": "> 10", "unit": "µM"},
      {"measurement": "IC50", "setting": "second compound 1 µM", "result": "> 10", "unit": "µM"},
      {"measurement": "IC50", "setting": "second compound 3.16 µM", "result": "> 10", "unit": "µM"},
      {"measurement": "IC50", "setting": "second compound 10 µM", "result": "> 10", "unit": "µM"},
      {"measurement": "viability, T/C", "setting": "[1]", "result": 97.1, "unit": "%"},
      {"measurement": "viability, T/C", "setting": "[2]", "result": 109, "unit": "%"},
      {"measurement": "viability, T/C", "setting": "[3]", "result": 96.2, "unit": "%"},
      {"measurement": "viability, T/C", "setting": "[4]", "result": 90.6, "unit": "%"},
      {"measurement": "viability, T/C", "setting": "[5]", "result": 79.6, "unit": "%"},
      {"measurement": "viability, T/C", "setting": "[6]", "result": 59, "unit": "%"},
      {"measurement": "viability, T/C", "setting": "[7]", "result": 86.1, "unit": "%"},
      {"measurement": "viability, T/C", "setting": "[8]", "result": 88.6, "unit": "%"},
      {"measurement": "viability, T/C", "setting": "[9]", "result": 89.7, "unit": "%"},
      {"measurement": "viability, T/C", "setting": "[10]", "result": 94.5, "unit": "%"},
      {"measurement": "viability, T/C", "setting": "[11]", "result": 73.8, "unit": "%"},
      {"measurement": "viability, T/C", "setting": "[12]", "result": 65, "unit": "%"},
      {"measurement": "viability, T/C", "setting": "[13]", "result": 71.8, "unit": "%"},
      {"measurement": "viability, T/C", "setting": "[14]", "result": 78.7, "unit": "%"},
      {"measurement": "viability, T/C", "setting": "[15]", "result": 59.6, "unit": "%"},
      {"measurement": "viability, T/C", "setting": "[16]", "result": 56.3, "unit": "%"},
      {"measurement": "viability, T/C", "setting": "[17]", "result": 56.6, "unit": "%"},
      {"measurement": "viability, T/C", "setting": "[18]", "result": 66.9, "unit": "%"},
      {"measurement": "viability, T/C", "setting": "[19]", "result": 70.8, "unit": "%"},
      {"measurement": "viability, T/C", "setting": "[20]", "result": 53.9, "unit": "%"},
      {"measurement": "viability, T/C", "setting": "[21]", "result": 53.6, "unit": "%"},
      {"measurement": "viability, T/C", "setting": "[22]", "result": 51, "unit": "%"},
      {"measurement": "viability, T/C", "setting": "[23]", "result": 57.9, "unit": "%"},
      {"measurement": "viability, T/C", "setting": "[24]", "result": 57.8, "unit": "%"},
      {"measurement": "viability, T/C", "setting": "[25]", "result": 64.2, "unit": "%"},
      {"measurement": "viability, T/C", "setting": "[26]", "result": 60.5, "unit": "%"},
      {"measurement": "viability, T/C", "setting": "[27]", "result": 56, "unit": "%"},
      {"measurement": "viability, T/C", "setting": "[28]", "result": 58.1, "unit": "%"},
      {"measurement": "viability, T/C", "setting": "[29]", "result": 44.7, "unit": "%"},
      {"measurement": "viability, T/C", "setting": "[30]", "result": 53.8, "unit": "%"},
      {"measurement": "viability, T/C", "setting": "[31]", "result": 56.7, "unit": "%"},
      {"measurement": "viability, T/C", "setting": "[32]", "result": 57.9, "unit": "%"},
      {"measurement": "viability, T/C", "setting": "[33]", "result": 47.5, "unit": "%"},
      {"measurement": "viability, T/C", "setting": "[34]", "result": 65.9, "unit": "%"},
      {"measurement": "viability, T/C", "setting": "[35]", "result": 61.4, "unit": "%"},
      {"measurement": "viability, T/C", "setting": "[36]", "result": 47.2, "unit": "%"}
    ]},
    {"compound": "C=CC(=O)N1CCN(c2nc(=O)n(-c3c(C)ccnc3C(C)C)c3nc(-c4c(O)cccc4F)c(F)cc23)C(C)C1", "note": "(centres undefined) + CN(C)c1ccc(Nc2c3ccc(NC(=O)CCN4CCCC4)cc3nc3cc(NC(=O)CCN4CCCC4)ccc23)cc1", "values": [
      {"measurement": "IC50", "setting": "second compound 0.0316 µM", "result": "> 10", "unit": "µM"},
      {"measurement": "IC50", "setting": "second compound 0.1 µM", "result": "> 10", "unit": "µM"},
      {"measurement": "IC50", "setting": "second compound 0.316 µM", "result": "> 10", "unit": "µM"},
      {"measurement": "IC50", "setting": "second compound 1 µM", "result": "> 10", "unit": "µM"},
      {"measurement": "IC50", "setting": "second compound 3.16 µM", "result": "< 0.0316", "unit": "µM"},
      {"measurement": "IC50", "setting": "second compound 10 µM", "result": "> 10", "unit": "µM"},
      {"measurement": "viability, T/C", "setting": "[1]", "result": 93.1, "unit": "%"},
      {"measurement": "viability, T/C", "setting": "[2]", "result": 90.4, "unit": "%"},
      {"measurement": "viability, T/C", "setting": "[3]", "result": 106, "unit": "%"},
      {"measurement": "viability, T/C", "setting": "[4]", "result": 97.6, "unit": "%"},
      {"measurement": "viability, T/C", "setting": "[5]", "result": 102, "unit": "%"},
      {"measurement": "viability, T/C", "setting": "[6]", "result": 87.6, "unit": "%"},
      {"measurement": "viability, T/C", "setting": "[7]", "result": 90, "unit": "%"},
      {"measurement": "viability, T/C", "setting": "[8]", "result": 75.8, "unit": "%"},
      {"measurement": "viability, T/C", "setting": "[9]", "result": 80.6, "unit": "%"},
      {"measurement": "viability, T/C", "setting": "[10]", "result": 73.9, "unit": "%"},
      {"measurement": "viability, T/C", "setting": "[11]", "result": 77, "unit": "%"},
      {"measurement": "viability, T/C", "setting": "[12]", "result": 75.2, "unit": "%"},
      {"measurement": "viability, T/C", "setting": "[13]", "result": 67.9, "unit": "%"},
      {"measurement": "viability, T/C", "setting": "[14]", "result": 82.1, "unit": "%"},
      {"measurement": "viability, T/C", "setting": "[15]", "result": 68.6, "unit": "%"},
      {"measurement": "viability, T/C", "setting": "[16]", "result": 58.5, "unit": "%"},
      {"measurement": "viability, T/C", "setting": "[17]", "result": 71, "unit": "%"},
      {"measurement": "viability, T/C", "setting": "[18]", "result": 68.9, "unit": "%"},
      {"measurement": "viability, T/C", "setting": "[19]", "result": 55.4, "unit": "%"},
      {"measurement": "viability, T/C", "setting": "[20]", "result": 47.8, "unit": "%"},
      {"measurement": "viability, T/C", "setting": "[21]", "result": 62.2, "unit": "%"},
      {"measurement": "viability, T/C", "setting": "[22]", "result": 56.6, "unit": "%"},
      {"measurement": "viability, T/C", "setting": "[23]", "result": 59.1, "unit": "%"},
      {"measurement": "viability, T/C", "setting": "[24]", "result": 63.6, "unit": "%"},
      {"measurement": "viability, T/C", "setting": "[25]", "result": 48.2, "unit": "%"},
      {"measurement": "viability, T/C", "setting": "[26]", "result": 52.1, "unit": "%"},
      {"measurement": "viability, T/C", "setting": "[27]", "result": 42.3, "unit": "%"},
      {"measurement": "viability, T/C", "setting": "[28]", "result": 44.6, "unit": "%"},
      {"measurement": "viability, T/C", "setting": "[29]", "result": 55.8, "unit": "%"},
      {"measurement": "viability, T/C", "setting": "[30]", "result": 45.3, "unit": "%"},
      {"measurement": "viability, T/C", "setting": "[31]", "result": 50.6, "unit": "%"},
      {"measurement": "viability, T/C", "setting": "[32]", "result": 55.1, "unit": "%"},
      {"measurement": "viability, T/C", "setting": "[33]", "result": 43.5, "unit": "%"},
      {"measurement": "viability, T/C", "setting": "[34]", "result": 53.5, "unit": "%"},
      {"measurement": "viability, T/C", "setting": "[35]", "result": 62.6, "unit": "%"},
      {"measurement": "viability, T/C", "setting": "[36]", "result": 47.8, "unit": "%"}
    ]}
  ]
}
